Holding throughout (format): cell-based
Assay [1] relates to Candida albicans. Kind of assay: In vitro antifungal activity against Candida albicans, MIC by twofold micro-broth dilution (Test Example 3). The procedure: MICs were determined by the twofold micro-broth dilution method with RPMI 1640 buffered with morphorino-propanesulfonic acid to a final molarity of 0.165M (pH 7.0). One hundred μl of a yeast cell suspension (1 to 5×10^3 cells/ml) and 100 μl of the compound-containing medium were pipetted into each well flat-bottomed microtiter plates. After incubation for 48 hours at 35° C., the turbidity of each well was measured at 630 nm.

Assay [2] concerns Trichophyton mentagrophytes. Kind of assay: In vitro activity against Trichophyton mentagrophytes, MIC by twofold macro-broth dilution (Test Example 1). As to conditions: Trichophyton mentagrophytes, 7 days at 27° C. The procedure: (§1) Minimum inhibitory concentrations (MICs) were determined by the twofold macro-broth dilution method with Sabouraud's glucose broth which constituted with 1% bactopeptone and 4% glucose. To each tube containing 9.8 ml of the broth, 0.1 ml of each testing compound dissolved in DMSO and 0.1 ml of a conidial suspension (1×10^6 conidia/ml) were added. The fungal growth was observed after incubation for 7 days at 27° C. The MIC was determined as the lowest drug concentration which prevented a visible fungal growth.

Assay [3] has as its system Trichophyton rubrum. Put plainly: In vitro activity against Trichophyton rubrum, MIC by twofold macro-broth dilution (Test Example 1). The procedure:
as §1

Values after ≈ are worked out from the molar mass of the structure shown. Read-outs that look alike come from different tables or passages of the source. Some results are limits rather than exact numbers.

For `OC(Cn1cncn1)(Cn1cncn1)c1ccc(F)cc1F` [FCZ, 2(2,4-Difluorophenyl)-1,3-bis(1H-1,2,4-triazol-1-yl)-2-propanol], the minimum inhibitory concentration (MIC) (as a rule, the least concentration at which growth counts as inhibited) is 0.25 µg/mL (≈ 0.816 µM) in assay [1] (IFO0197, 48 h, pH 7); 0.125 µg/mL (≈ 0.408 µM) in assay [1] (IFO0579, 48 h, pH 7); 0.25 µg/mL (≈ 0.816 µM) in assay [1] (IFO1269, 48 h, pH 7); 0.25 µg/mL (≈ 0.816 µM) in assay [1] (IFO1270, 48 h, pH 7); 0.25 µg/mL (≈ 0.816 µM) in assay [1] (IFO1385, 48 h, pH 7); 0.5 µg/mL (≈ 1.63 µM) in assay [1] (IFO1386, 48 h, pH 7). Besides, the MIC in assay [1] (TIMM3163, 48 h, pH 7) was 16 µg/mL (≈ 52.2 µM); in assay [1] (TIMM3164, 48 h, pH 7) it was 2 µg/mL (≈ 6.53 µM); in assay [1] (TIMM3165, 48 h, pH 7), above 32 µg/mL; in assay [1] (TIMM3166, 48 h, pH 7), 8 µg/mL (≈ 26.1 µM).
For `CN(C/C=C/C#CC(C)(C)C)Cc1cccc2ccccc12` [TBF, (E)N-(6,6-Dimethyl-2-hepten-4-ynyl)-N-methyl-1-naphthalenemethaneamine hyrochloride], the MIC in assay [2] (IFO5466, 168 h, strain IFO 5466) amounted to 0.02 µg/mL (≈ 0.0686 µM); in assay [2] (IFO5809, 168 h, strain IFO 5809), 0.01 µg/mL (≈ 0.0343 µM); in assay [2] (IFO5810, 168 h, strain IFO 5810) it was 0.005 µg/mL (≈ 0.0172 µM); in assay [2] (IFO5811, 168 h, strain IFO 5811), 0.01 µg/mL (≈ 0.0343 µM); in assay [2] (IFO5929, 168 h, strain IFO 5929) it was 0.01 µg/mL (≈ 0.0343 µM); in assay [2] (TIMM1189, 168 h, strain TIMM 1189), 0.01 µg/mL (≈ 0.0343 µM). In addition, the MIC in assay [2] (TIMM1814, 168 h, strain TIMM 1814) is 0.01 µg/mL (≈ 0.0343 µM); in assay [2] (TIMM1815, 168 h, strain TIMM 1815), 0.02 µg/mL (≈ 0.0686 µM); in assay [2] (TIMM1817, 168 h, strain TIMM 1817), 0.01 µg/mL (≈ 0.0343 µM); in assay [2] (TIMM2789, 168 h, strain TIMM 2789) it was 0.0025 µg/mL (≈ 0.00858 µM); in assay [1] (IFO0197, strain IFO 0197, 80% inhibition, 48 hours at 35° C., pH 7.0, read-out: MIC), above 32 µg/mL; in assay [1] (IFO0579, strain IFO 0579, 80% inhibition, 48 hours at 35° C., pH 7.0, read-out: MIC), above 32 µg/mL. In addition, the MIC is 4 µg/mL (≈ 13.7 µM) in assay [1] (IFO1269, strain IFO 1269, 80% inhibition, 48 hours at 35° C., pH 7.0, read-out: MIC); above 32 µg/mL in assay [1] (IFO1270, strain IFO 1270, 80% inhibition, 48 hours at 35° C., pH 7.0, read-out: MIC); above 32 µg/mL in assay [1] (IFO1385, strain IFO 1385, 80% inhibition, 48 hours at 35° C., pH 7.0, read-out: MIC); above 32 µg/mL in assay [1] (IFO1386, strain IFO 1386, 80% inhibition, 48 hours at 35° C., pH 7.0, read-out: MIC); above 32 µg/mL in assay [1] (TIMM3163, strain TIMM 3163, 80% inhibition, 48 hours at 35° C., pH 7.0, read-out: MIC); above 32 µg/mL in assay [1] (TIMM3164, strain TIMM 3164, 80% inhibition, 48 hours at 35° C., pH 7.0, read-out: MIC). Moreover, the MIC in assay [1] (TIMM3165, strain TIMM 3165, 80% inhibition, 48 hours at 35° C., pH 7.0, read-out: MIC) is above 32 µg/mL; in assay [1] (TIMM3166, strain TIMM 3166, 80% inhibition, 48 hours at 35° C., pH 7.0, read-out: MIC), above 32 µg/mL; in assay [3] (IFO5467, 168 h, strain IFO 5467, 7 days at 27° C.) it was 0.005 µg/mL (≈ 0.0172 µM); in assay [3] (IFO5807, 168 h, strain IFO 5807, 7 days at 27° C.), 0.005 µg/mL (≈ 0.0172 µM); in assay [3] (IFO5808, 168 h, strain IFO 5808, 7 days at 27° C.), 0.005 µg/mL (≈ 0.0172 µM); in assay [3] (IFO6203, 168 h, strain IFO 6203, 7 days at 27° C.), 0.0025 µg/mL (≈ 0.00858 µM). Besides, the MIC in assay [3] (IFO6204, 168 h, strain IFO 6204, 7 days at 27° C.) stood at 0.005 µg/mL (≈ 0.0172 µM); in assay [3] (IFO9185, 168 h, strain IFO 9185, 7 days at 27° C.), 0.0025 µg/mL (≈ 0.00858 µM); in assay [3] (TIMM1822, 168 h, strain TIMM 1822, 7 days at 27° C.) it was 0.0025 µg/mL (≈ 0.00858 µM); in assay [3] (TIMM1823, 168 h, strain TIMM 1823, 7 days at 27° C.), 0.0025 µg/mL (≈ 0.00858 µM); in assay [3] (TIMM1824, 168 h, strain TIMM 1824, 7 days at 27° C.) it was 0.0013 µg/mL (≈ 0.00446 µM); in assay [3] (TIMM1830, 168 h, strain TIMM 1830, 7 days at 27° C.), 0.00063 µg/mL (≈ 0.00216 µM).
